In patent US20050234046A1 (Kalypsys, Inc., priority 2004, published 2005) one finds EC50 data, which are given here for 24 molecules.

Holding throughout (assay): Transient transfection (transactivation) assay in CV-1 cells, GAL4-PPAR chimera, luciferase reporter
Holding throughout (type): cell-based
(In general: Reporter assays use an easily measured gene product as a stand-in for the process of interest.)

For one experiment, the target named is T1, PPAR gamma (Homo sapiens, UniProt P37231).
T1 construct: expressed in transfected cells; host or cells: CV-1 cells
T1 sequence (P37231 238-503 limits assumed): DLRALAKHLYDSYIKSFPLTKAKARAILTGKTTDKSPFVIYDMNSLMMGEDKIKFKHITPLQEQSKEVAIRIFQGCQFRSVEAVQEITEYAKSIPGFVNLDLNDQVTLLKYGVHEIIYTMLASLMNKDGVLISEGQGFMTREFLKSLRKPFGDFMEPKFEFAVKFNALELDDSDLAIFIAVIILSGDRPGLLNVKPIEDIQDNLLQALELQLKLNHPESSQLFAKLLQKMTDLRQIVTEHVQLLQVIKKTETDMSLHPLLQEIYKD

For the next experiment, the target named is T2, PPAR alpha (Homo sapiens, UniProt Q07869).
T2 construct: expressed in transfected cells; host or cells: CV-1 cells
T2 sequence (Q07869 239-466 limits assumed): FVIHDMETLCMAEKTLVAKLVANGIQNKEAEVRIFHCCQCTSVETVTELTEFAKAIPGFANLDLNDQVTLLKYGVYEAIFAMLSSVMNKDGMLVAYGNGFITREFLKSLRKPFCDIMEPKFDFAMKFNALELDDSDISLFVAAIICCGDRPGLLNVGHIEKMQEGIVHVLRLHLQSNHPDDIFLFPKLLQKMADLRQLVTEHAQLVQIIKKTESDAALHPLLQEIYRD
The procedure, abridged:
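EC50 and efficacy come from a luciferase read-out after 20-24 hours of compound exposure (vehicle 1% DMSO) in transiently transfected CV-1 cells. These cells express a GAL4-PPAR ligand-binding-domain chimera plus a reporter with four or five GAL4 binding sites, and are kept in phenol-red free DME with 5% delipidated calf serum.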

The target in a further experiment is T3, PPAR delta (Homo sapiens, UniProt Q03181).
T3 construct: expressed in transfected cells; host or cells: CV-1 cells
T3 sequence (Q03181 211-439 limits assumed): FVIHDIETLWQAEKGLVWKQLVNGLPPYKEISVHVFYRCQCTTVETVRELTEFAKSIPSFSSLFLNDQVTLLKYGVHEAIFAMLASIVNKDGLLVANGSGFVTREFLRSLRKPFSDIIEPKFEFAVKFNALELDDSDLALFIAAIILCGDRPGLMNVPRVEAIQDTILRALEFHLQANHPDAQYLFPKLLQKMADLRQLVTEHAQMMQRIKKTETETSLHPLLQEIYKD

Each structure is given as a SMILES string. Some results are limits rather than exact numbers.

For `Cc1ccc(S(=O)(=O)N2[C@H](C)CN(c3ccc(C(F)(F)F)c(F)c3)C[C@@H]2C)cc1CC(=O)O` [Example 68, {5-[4-(3-Fluoro-4-trifluoromethyl-phenyl)-2,6-dimethyl-piperazine-1-sulfonyl]-2-methyl-phenyl}-acetic acid], the EC50 (usually the concentration needed to bring the measured effect to its halfway point) on PPAR gamma is 5 to 100 µM; at PPAR alpha it was less than 5 µM; on PPAR delta it was less than 5 µM.
With `Cc1ccc(S(=O)(=O)N2CCN(c3ccc(C(F)(F)F)cn3)[C@@H](C)C2)cc1CC(=O)O` [Example 70, {2-Methyl-5-[(S)-3-methyl-4-(5-trifluoromethyl-pyridin-2-yl)-piperazine-1-sulfonyl]-phenyl}-acetic acid], the EC50 on PPAR gamma, at PPAR alpha and at PPAR delta was less than 5 µM throughout.
In the case of `Cc1ccc(S(=O)(=O)N2C[C@@H](C)N(c3ccc(C(F)(F)F)cn3)[C@@H](C)C2)cc1CC(=O)O` [Example 72, {2-Methyl-5-[3,5-dimethyl-4-(5-trifluoromethyl-pyridin-2-yl)-piperazine-1-sulfonyl]-phenyl}-acetic acid], the values for the EC50 on PPAR gamma, at PPAR alpha and on PPAR delta were greater than 100 µM, greater than 100 µM and 5 to 100 µM, respectively.
Take `Cc1ccc(S(=O)(=O)N2CCN(c3ccc4occc4c3)CC2C)cc1CC(=O)O` (stereo not drawn) [Example 73, [5-(4-Benzofuran-5-yl-2-methyl-piperazine-1-sulfonyl)-2-methyl-phenyl]-acetic acid]: the EC50 was greater than 100 µM at PPAR gamma, greater than 100 µM at PPAR alpha and 5 to 100 µM on PPAR delta.
As to `Cc1ccc(S(=O)(=O)N2CCN(c3ccc(C(F)(F)F)nn3)CC2)cc1CC(=O)O` [Example 74], the 50% effective concentration (EC50) was greater than 100 µM on PPAR gamma, greater than 100 µM at PPAR alpha and 5 to 100 µM on PPAR delta.
With `COc1ccc(S(=O)(=O)N2CCN(c3ccc(C(F)(F)F)cc3)CC2)cc1CC(=O)O` [Example 75, {2-Methoxy-5-[4-(4-trifluoromethyl-phenyl)-piperazine-1-sulfonyl]-phenyl}-acetic acid], the EC50 on PPAR gamma was 5 to 100 µM; on PPAR alpha, greater than 100 µM; at PPAR delta, less than 5 µM.
Turning to `COc1ccc(S(=O)(=O)N2CCN(c3ccc(C(F)(F)F)cn3)CC2)cc1CC(=O)O` [Example 76, {2-Methoxy-5-[4-(5-trifluoromethyl-pyridin-2-yl)-piperazine-1-sulfonyl]-phenyl}-acetic acid], the results for the EC50 on PPAR gamma, on PPAR alpha and at PPAR delta were 5 to 100 µM, greater than 100 µM and less than 5 µM, respectively.
With `COc1ccc(S(=O)(=O)N2CCN(c3ccc(C(F)(F)F)cn3)CC2C)cc1CC(=O)O` (stereo not drawn) [Example 77, {2-Methoxy-5-[2-methyl-4-(5-trifluoromethyl-pyridin-2-yl)-piperazine-1-sulfonyl]-phenyl}-acetic acid], the concentration giving a half-maximal response (EC50) was 5 to 100 µM on PPAR gamma, greater than 100 µM at PPAR alpha and less than 5 µM at PPAR delta.
`COc1ccc(S(=O)(=O)N2[C@H](C)CN(c3ccc(C(F)(F)F)cn3)C[C@@H]2C)cc1CC(=O)O` [Example 78, {5-[2,6-Dimethyl-4-(5-trifluoromethyl-pyridin-2-yl)-piperazine-1-sulfonyl]-2-methoxy-phenyl}-acetic acid]: the EC50 at PPAR gamma was greater than 100 µM; at PPAR alpha, greater than 100 µM; on PPAR delta it was less than 5 µM.
With `COc1ccc(CC(=O)O)cc1S(=O)(=O)N1CCN(c2ccc(C(F)(F)F)cc2)CC1` [Example 79, {4-Methoxy-3-[4-(4-trifluoromethyl-phenyl)-piperazine-1-sulfonyl]-phenyl}-acetic acid], the EC50 at PPAR gamma was 5 to 100 µM; at PPAR alpha, greater than 100 µM; on PPAR delta, less than 5 µM.
Turning to `COc1ccc(CC(=O)O)cc1S(=O)(=O)N1CCN(c2ccc(C(F)(F)F)cn2)CC1` [Example 80], the 50% effective concentration (EC50) on PPAR gamma was 5 to 100 µM; on PPAR alpha it was greater than 100 µM; on PPAR delta it was less than 5 µM.
As for `COc1ccc(CC(=O)O)cc1S(=O)(=O)N1CCN(c2ccc(C(F)(F)F)cn2)CC1C` (stereo not drawn) [Example 81, {4-Methoxy-3-[2-methyl-4-(5-trifluoromethyl-pyridin-2-yl)-piperazine-1-sulfonyl]-phenyl}-acetic acid], the concentration for a half-maximal effect (EC50) is 5 to 100 µM on PPAR gamma, greater than 100 µM on PPAR alpha and 5 to 100 µM at PPAR delta.
As to `COc1ccc(CC(=O)O)cc1S(=O)(=O)N1[C@H](C)CN(c2ccc(C(F)(F)F)cn2)C[C@@H]1C` [Example 82, {3-[2,6-Dimethyl-4-(5-trifluoromethyl-pyridin-2-yl)-piperazine-1-sulfonyl]-4-methoxy-phenyl}-acetic acid], the results for the EC50 at PPAR gamma, at PPAR alpha and on PPAR delta were greater than 100 µM, greater than 100 µM and 5 to 100 µM, respectively.
Consider `Cc1ccc(S(=O)(=O)N2[C@H](C)CN(c3ccc(Cl)c(Cl)c3)C[C@@H]2C)cc1CC(=O)O` [Example 83, {5-[4-(3,4-Dichloro-phenyl)-2,6-dimethyl-piperazine-1-sulfonyl]-2-methyl-phenyl}-acetic acid], for which the EC50 was greater than 100 µM on PPAR gamma, greater than 100 µM at PPAR alpha and less than 5 µM at PPAR delta.
For `CN(C)Cc1cc(CC(=O)O)cc(S(=O)(=O)N2CCN(c3ccc(C(F)(F)F)cc3)CC2)c1` [Example 84, {3-Dimethylaminomethyl-5-[4-(4-trifluorometbyl-phenyl)-piperazine-1-sulfonyl]-phenyl}-acetic acid], the EC50 on PPAR gamma, on PPAR alpha and at PPAR delta was greater than 100 µM each time.
Take `COCc1cc(CC(=O)O)cc(S(=O)(=O)N2CCN(c3ccc(C(F)(F)F)cc3)CC2)c1` [Example 85, {3-Methoxymethyl-5-[4-(4-trifluoromethyl-phenyl)-piperazine-1-sulfonyl]-phenyl}-acetic acid]: the EC50 is greater than 100 µM at PPAR gamma, greater than 100 µM at PPAR alpha and 5 to 100 µM at PPAR delta.
With `Cc1ccc(S(=O)(=O)N2CCN(c3cnc(Cl)cn3)CC2)cc1CC(=O)O` [Example 86], the EC50 on PPAR gamma, on PPAR alpha and at PPAR delta was greater than 100 µM throughout.
With `Cc1ccc(S(=O)(=O)N2CCN(c3ccc(OC(F)(F)F)cc3)CC2)cc1CC(=O)O` [Example 87, {2-Methyl-5-[4-(4-trifluoromethoxy-phenyl)-piperazine-1-sulfonyl]-phenyl}-acetic acid], the figures for the concentration giving a half-maximal response (EC50) on PPAR gamma, at PPAR alpha and on PPAR delta were 5 to 100 µM, less than 5 µM and less than 5 µM, respectively.
As to `CCNCc1cc(CC(=O)O)cc(S(=O)(=O)N2CCN(c3ccc(C(F)(F)F)cc3)CC2)c1` [Example 88, {3-Ethylaminomethyl-5-[4-(4-trifluoromethyl-phenyl)-piperazine-1-sulfonyl]-phenyl}-acetic acid], the EC50 on PPAR gamma, on PPAR alpha and at PPAR delta was greater than 100 µM each time.
In the case of `COCCNCc1cc(CC(=O)O)cc(S(=O)(=O)N2CCN(c3ccc(C(F)(F)F)cc3)CC2)c1` [Example 89, {3-[(2-Methoxy-ethylamino)-methyl]-5-[4-(4-trifluoromethyl-phenyl)-piperazine-1-sulfonyl]-phenyl}-acetic acid], the concentration for a half-maximal effect (EC50) at PPAR gamma, at PPAR alpha and at PPAR delta was greater than 100 µM throughout.
In the case of `Cc1ccc(S(=O)(=O)N2CCN(c3ccc(C(F)(F)F)c(F)c3)[C@@H](C)C2)cc1CC(=O)O` [Example 90, {5-[4-(3-Fluoro-4-trifluoromethyl-phenyl)-3-(S)-methyl-piperazine-1-sulfonyl]-2-methyl-phenyl}-acetic acid], the half-maximal effective concentration (EC50) is 5 to 100 µM at PPAR gamma, less than 5 µM at PPAR alpha and less than 5 µM at PPAR delta.
As to `O=C(O)Cc1cc(COCCO)cc(S(=O)(=O)N2CCN(c3ccc(C(F)(F)F)cc3)CC2)c1` [Example 91, {3-(2-Hydroxy-ethoxymethyl)-5-[4-(4-trifluoromethyl-phenyl)-piperazine-1-sulfonyl]-phenyl}-acetic acid], the EC50 on PPAR gamma, on PPAR alpha and on PPAR delta was greater than 100 µM each time.
With `O=C(O)Cc1cccc(S(=O)(=O)N2CCN(c3ccc(OC(F)(F)F)cc3)CC2)c1` [Example 92, {3-[4-(4-Trifluoromethoxy-phenyl)-piperazine-1-sulfonyl]-phenyl}-acetic acid], the concentration for a half-maximal effect (EC50) was greater than 100 µM on PPAR gamma, less than 5 µM on PPAR alpha and less than 5 µM on PPAR delta.
In the case of `Cc1ccc(S(=O)(=O)N2CCN(c3ccc(C(F)(F)F)c(Cl)c3)CC2)cc1CC(=O)O` [Example 93, {5-[4-(3-Chloro-4-trifluorometbyl-phenyl)-piperazine-1-sulfonyl]-2-methyl-phenyl}-acetic acid], the concentration giving a half-maximal response (EC50) on PPAR gamma was 5 to 100 µM; at PPAR alpha, less than 5 µM; at PPAR delta it was less than 5 µM.
